# Source: PubChem BioAssay (NCI)
#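 Step 1: Grow cells in 96-well plates. Step 2: Expose to compound for 48 hours at 5 concentrations. Step 3: Interpolate endpoints linearly; if unreached, use highest concentration. TGI denotes the concentration required for complete inhibition of growth.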
# How the values were obtained:
# Assay in all cases: growth of human tumour cells (NCI), 48 h
# [1] = tested on: SF-268 CNS
# [2] = tested on: A549 NSCLC
# [3] = tested on: PC-3 prostate
# [4] = tested on: MCF7 breast
# [5] = tested on: HCT-15 colon
# [6] = tested on: HOP-62 NSCLC
# [7] = tested on: MDA-N
# [8] = tested on: UACC-62 melanoma
# [9] = tested on: TK-10 renal
# [10] = tested on: MDA-MB-231 breast
# [11] = tested on: NCI-H460 lung
# [12] = tested on: KM12 colon
# [13] = tested on: K-562 leukemia
# [14] = tested on: IGROV1 ovarian
# [15] = tested on: SR leukemia
# [16] = tested on: SF-539 CNS
# [17] = tested on: ACHN renal
# [18] = tested on: RPMI-8226 leukemia
# [19] = tested on: DU-145 prostate
# [20] = tested on: MOLT-4 leukemia
# [21] = tested on: NCI-H226 lung
# [22] = tested on: HS 578T breast
# [23] = tested on: BT-549 breast
# [24] = tested on: NCI-H522 lung
# [25] = tested on: HCC-2998 colon
# [26] = tested on: M14 melanoma
# [27] = tested on: MALME-3M melanoma
# [28] = tested on: SNB-75 CNS
# [29] = tested on: HL-60(TB) leukemia
# [30] = tested on: NCI-H23 lung
# [31] = tested on: CCRF-CEM leukemia
# [32] = tested on: T-47D breast
# [33] = tested on: SK-OV-3 ovarian
# [34] = tested on: EKVX NSCLC
# [35] = tested on: HT29 colon
# [36] = tested on: SW-620 colon
# [37] = tested on: UACC-257 melanoma
# [38] = tested on: 786-0 renal
# [39] = tested on: UO-31 renal
# [40] = tested on: MDA-MB-435
# [41] = tested on: SF-295 CNS
# [42] = tested on: HCT-116 colon
# [43] = tested on: SK-MEL-28 melanoma
# [44] = tested on: SN12C renal
# [45] = tested on: OVCAR-8 ovarian
# [46] = tested on: A498 renal
# [47] = tested on: LOX IMVI melanoma
# [48] = tested on: COLO 205 colon
# [49] = tested on: SK-MEL-5 melanoma
# [50] = tested on: SNB-19 CNS
# [51] = tested on: CAKI-1 renal
# [52] = tested on: OVCAR-4 ovarian
# [53] = tested on: U251 CNS
# [54] = tested on: OVCAR-5 ovarian
# [55] = tested on: RXF 393 renal
# [56] = tested on: SK-MEL-2 melanoma
# [57] = tested on: NCI/ADR-RES ovarian
# [58] = tested on: OVCAR-3 ovarian
compound,measurement,setting,value
Cc1nn(C(=O)Cc2ccccc2)c2c1C(c1ccccc1)SC(N)=N2 (stereo not given),TGI,[1],> 100 µM
same,TGI,[2],> 100 µM
same,TGI,[3],> 100 µM
same,TGI,[4],> 100 µM
same,TGI,[5],> 100 µM
same,TGI,[6],> 100 µM
same,TGI,[7],> 100 µM
same,TGI,[8],> 100 µM
same,TGI,[9],> 100 µM
same,TGI,[10],> 100 µM
same,TGI,[11],> 100 µM
same,TGI,[12],> 100 µM
same,TGI,[13],> 100 µM
same,TGI,[14],> 100 µM
same,TGI,[15],> 100 µM
same,TGI,[16],> 100 µM
same,TGI,[17],> 100 µM
same,TGI,[18],> 100 µM
same,TGI,[19],> 100 µM
same,TGI,[20],> 100 µM
same,TGI,[21],> 100 µM
same,TGI,[22],> 100 µM
same,TGI,[23],> 100 µM
same,TGI,[24],> 100 µM
same,TGI,[25],> 100 µM
same,TGI,[26],> 100 µM
same,TGI,[27],> 100 µM
same,TGI,[28],> 100 µM
same,TGI,[29],> 100 µM
same,TGI,[30],> 100 µM
same,TGI,[31],> 100 µM
same,TGI,[32],> 100 µM
same,TGI,[33],> 100 µM
same,TGI,[34],> 100 µM
same,TGI,[35],> 100 µM
same,TGI,[36],> 100 µM
same,TGI,[37],> 100 µM
same,TGI,[38],> 100 µM
same,TGI,[39],> 100 µM
same,TGI,[40],> 100 µM
same,TGI,[41],> 100 µM
same,TGI,[42],> 100 µM
same,TGI,[43],> 100 µM
same,TGI,[44],> 100 µM
same,TGI,[45],> 100 µM
same,TGI,[46],> 100 µM
same,TGI,[47],> 100 µM
same,TGI,[48],> 100 µM
same,TGI,[49],> 100 µM
same,TGI,[50],> 100 µM
same,TGI,[51],> 100 µM
C[C@]12c3c4cc(NC(=O)C(=O)NCc5ccc(-c6ccccn6)nc5)cc3Oc3cc(NC(=O)C(=O)NCc5ccc(-c6ccccn6)nc5)cc(c31)OC1C=C(NC(=O)C(=O)NCc3ccc(-c5ccccn5)nc3)C=C(O4)C12 (stereo not given in full),TGI,[1],> 100 µM
same,TGI,[2],> 100 µM
same,TGI,[3],> 100 µM
same,TGI,[4],> 100 µM
same,TGI,[5],> 100 µM
same,TGI,[6],> 100 µM
same,TGI,[7],> 100 µM
same,TGI,[8],79.1 µM
same,TGI,[9],> 100 µM
same,TGI,[10],27.5 µM
same,TGI,[52],29.8 µM
same,TGI,[53],> 100 µM
same,TGI,[11],> 100 µM
same,TGI,[12],> 100 µM
same,TGI,[13],> 100 µM
same,TGI,[14],40.6 µM
same,TGI,[15],51.9 µM
same,TGI,[16],> 100 µM
same,TGI,[54],> 100 µM
same,TGI,[17],59.2 µM
same,TGI,[18],> 100 µM
same,TGI,[19],98.6 µM
same,TGI,[20],> 100 µM
same,TGI,[21],> 100 µM
same,TGI,[22],> 100 µM
same,TGI,[23],> 100 µM
same,TGI,[24],> 100 µM
same,TGI,[55],> 100 µM
same,TGI,[26],> 100 µM
same,TGI,[56],> 100 µM
same,TGI,[28],76.3 µM
same,TGI,[29],> 100 µM
same,TGI,[57],> 100 µM
same,TGI,[31],> 100 µM
same,TGI,[32],97.9 µM
same,TGI,[33],> 100 µM
same,TGI,[34],62.4 µM
same,TGI,[35],> 100 µM
same,TGI,[36],> 100 µM
same,TGI,[37],> 100 µM
same,TGI,[38],75.5 µM
same,TGI,[39],68.6 µM
same,TGI,[58],> 100 µM
same,TGI,[40],> 100 µM
same,TGI,[41],> 100 µM
same,TGI,[42],> 100 µM
same,TGI,[43],> 100 µM
same,TGI,[44],> 100 µM
same,TGI,[45],> 100 µM
same,TGI,[47],70.4 µM
same,TGI,[48],> 100 µM
same,TGI,[49],> 100 µM
same,TGI,[50],> 100 µM
same,TGI,[51],93.4 µM
